According to patent publication US9655975B2, “Prodrug using nitroimidazole” (UNIVERSITY OF TSUKUBA, priority 2012, dated 2017):

Tests used:
Format in all cases: cell-based
[1] = system: Human pancreatic cancer cells (MIA PaCa-2); experiment: Evaluation of cell survival rate by WST assay, normal vs low oxygen (Example 7, Comparative Example)
Procedure: Human pancreatic cancer cells (MIA PaCa-2, acquired from Riken Cell Bank) were dispensed at a density of 5,000 cells/well and cultured for 24 hours in Dulbecco's modified Eagle medium (DMEM), following which Compound 7 was added to the specified concentration and 6 hours of culturing was carried out at a normal oxygen concentration (20%) or a low oxygen concentration (0.1%). After culturing, DMEM medium replacement was carried out, the compound was removed, and 48 hours of culturing was carried out in a normal oxygen concentration incubator, following which the cell survival rate was analyzed by a WST assay.
Compound 8 below, which is mentioned in WO 2009/018163 A1, was furnished for use. The cell survival rates were compared in tests conducted by the method described in Example 7 on both Compound 8 and a compound within the scope of this invention (aside from the fact that the corresponding linker was —CH2CH2C(═O)—, the manner of bonding between nitroimidazole and the drug was the same; Compound 7 of Example 6).

[2] = system: Human pancreatic cancer cells (MIA PaCa-2); experiment: Release of drug from prednisolone prodrug in low-oxygen environment (Example 16), LC/MS; details: Compound 13 at a concentration of 10, one hour, 20% O2 vs 0.1% O2, LC/MS, FIG. 8
Procedure: Human pancreatic cancer cells (MIA PaCa-2, acquired from Riken Cell Bank) were prepared as a suspension having a cell count of 1×10^4 cells/mL), and dispensed into a 96-well plate. After 24 hours, Compound 13 was added to a concentration of 10 and the cells were cultured in a normal oxygen concentration incubator (20% O2) or at a low-oxygen work station (0.1% O2). One hour layer, the culture medium was recovered, trypsin was added, and the cells were recovered. The recovered cells were disrupted by sonic treatment and the compound was extracted with acetonitrile, following which analysis by LC/MS of the amount of prednisolone released was carried out under the following conditions.
Column used: TSKgel ODS-100Z (particle size, 3 μm; 2 mm×75 mm) column
Measurement wavelength: 250 nm
Eluent A: 0.1 M ammonium acetate
Gradient: 40:60 (Eluent A:Eluent B)→10:90 (20 minutes)
By carrying out this measurement, the amount of compound released in a low-oxygen environment was compared with the amount released in a normal oxygen environment.

cultured cells = experiment: Incubation of Compound 5 in cultured cells under low oxygen (Example 4), release of naphthylmethylamine by HPLC; details: Compound 5 at 1 mM, 6 hours, 20% O2 vs 1% O2, HPLC, FIG. 2
Procedure: This example was carried out to confirm that Compound 5 is reduced in cells within a hypoxic environment, and that naphthylmethylamine is released by a subsequent intramolecular cyclization reaction.
A cell suspension prepared to a cell count of 1×10^4 cells/mL was dispensed into a 96-well plate, and the cells were cultured by 24 hours of incubation at 37° C. After 24 hours, the synthesized Compound 5 was added to the cells in an amount of 1 mM. Following addition, the cells were cultured for 6 hours each in a normal oxygen concentration incubator (20% O2) or at a low-oxygen work station (1% O2). The culture medium was then recovered, 50 μL of Trypsin/EDTA was added and 5 minutes of incubation was carried out, following which the cells were stripped away and added to the medium that was earlier recovered. Next, the recovered sample was freeze-dried overnight, 200 μL of acetonitrile was added, and 30 minutes of ultrasonic cleaning was carried out. In addition, dead cells were precipitated by centrifugal separation (3,000 rpm, 10 min), the supernatant was recovered, and the acetonitrile was removed with a centrifugal evaporator. Next, 200 μL of methanol (for LC/MS) was added to the Eppendorf tube used in centrifugation, the tube contents were passed through a filter (0.2 μm), and LC/MS measurement and high-performance liquid chromatography (HPLC) measurement were carried out. […]

[3] = system: Human pancreatic cancer cells (MIA PaCa-2); experiment: Incubation of Compound 5 in MIA PaCa-2 cells under low oxygen (Example 5), release by LC/MS; details: Compound 5 at 10 μM, MIA PaCa-2, 20% O2 vs 0.1% O2, LC/MS, FIG. 3
Procedure: Human pancreatic cancer cells (MIA PaCa-2, acquired from Riken Cell Bank) were prepared as a suspension having a cell count of 1×10^4 cells/mL), and dispensed into a 96-well plate. After 24 hours, Compound 5 was added to a concentration of 10 μM and the cells were cultured, in a normal oxygen concentration incubator (20% O2) or at a low-oxygen work station (0.1% O2). After a given time had elapsed, the culture medium was recovered, trypsin was added and the cells were recovered. The recovered cells were disrupted by sonic treatment, the compound was extracted with acetonitrile, and analysis by LC/MS was carried out under the following conditions.
Column used: Lachrom Ultra C18 (particle size, 2 μm; 2 mm×50 mm) column
Measurement wavelength: 220 nm
Eluent A: 0.1% TFA-containing milliQ
Gradient: 95:5 (Eluent A:Eluent B)→95:5 (5 minutes)→30:70 (15 minutes)
By carrying out this measurement, the amount of compound released in a low-oxygen environment and the amount of compound released in a normal oxygen environment were compared.

Structure (SMILES): COc1cccc2c1C(=O)c1c(O)c3c(c(O)c1C2=O)CC(O)(C(=O)CO)CC3OC1CC(NC(=O)CCn2ccnc2[N+](=O)[O-])C(O)C(C)O1 (centres unmarked) [Compound 7]
- cell survival rate at low oxygen concentration compared with normal oxygen concentration ([1]; 6 hours at 20% or 0.1% O2, then 48 hours normal oxygen, WST assay, FIG. 4): significantly lowers the survival rate of human pancreatic cancer cells at a low-oxygen concentration compared with a normal oxygen concentration
- cytotoxicity compared with known Compound 8 ([1]; method of Example 7, MIA PaCa-2, FIG. 5): significantly higher cytotoxicity

Structure (SMILES): C[C@]12C=CC(=O)C=C1CC[C@@H]1[C@@H]2[C@@H](O)C[C@@]2(C)[C@H]1CC[C@]2(O)C(=O)COC(=O)CCn1ccnc1[N+](=O)[O-] [Compound 13]
- amount of prednisolone released in low-oxygen vs normal oxygen environment [2]: much prednisolone is released in a low-oxygen environment

Structure (SMILES): O=C(CCn1ccnc1[N+](=O)[O-])NCc1cccc2ccccc12 [Compound 5, N-Naphthylmethyl-3-(2-Nitro-1H-Imidazolyl)propionylamide]
- amount of naphthylmethylamine released in low-oxygen vs normal oxygen environment (cultured cells): much naphthylmethylamine is released in a low-oxygen environment
- amount of naphthylmethylamine released in low-oxygen vs normal oxygen environment [3]: much naphthylmethylamine is released in a low-oxygen environment
